ChEMBL document CHEMBL1201862, “PubChem BioAssay data set” (2004)
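Where inhibition never reached the appropriate level, the endpoint shown equals the highest concentration tested. Otherwise, values were interpolated linearly from a five-concentration, 48-hour dose response in 96-well plates. Abbreviation: GI50, concentration required for 50% inhibition of growth.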 Active and inactive are the calls of the source. Cut-off read from the data, not from the text of the source: active = GI50 up to about 1.1 µM and inactive = higher.

Key:
Test in all cases: NCI tumour cell line growth inhibition, 48 h
COLO 205 = test system: COLO 205
SK-MEL-28 = test system: SK-MEL-28
MDA-N = test system: MDA-N
SN12C = test system: SN12C
SF-268 = test system: SF-268
CCRF-CEM = test system: CCRF-CEM
SF-295 = test system: SF-295
UACC-62 = test system: UACC-62
HCT-116 = test system: HCT-116
IGROV-1 = test system: IGROV-1
K562 = test system: K562
PC-3 = test system: PC-3
SK-MEL-2 = test system: SK-MEL-2
NCI-H522 = test system: NCI-H522
EKVX = test system: EKVX
KM12 = test system: KM12
NCI-H460 = test system: NCI-H460
HT-29 = test system: HT-29
LOX IMVI = test system: LOX IMVI
SW-620 = test system: SW-620
786-0 = test system: 786-0
NCI/ADR-RES = test system: NCI/ADR-RES
RXF 393 = test system: RXF 393
A549 = test system: A549
UACC-257 = test system: UACC-257
SNB-19 = test system: SNB-19
MDA-MB-231 = test system: MDA-MB-231
OVCAR-4 = test system: OVCAR-4
DU-145 = test system: DU-145
SF-539 = test system: SF-539
SK-MEL-5 = test system: SK-MEL-5
SNB-75 = test system: SNB-75
T47D = test system: T47D
UO-31 = test system: UO-31
CAKI-1 = test system: CAKI-1
HCC 2998 = test system: HCC 2998
MCF7 = test system: MCF7
HOP-92 = test system: HOP-92
U-251 = test system: U-251
OVCAR-5 = test system: OVCAR-5
HOP-62 = test system: HOP-62
MDA-MB-435 = test system: MDA-MB-435
Hs-578T = test system: Hs-578T
HCT-15 = test system: HCT-15
OVCAR-8 = test system: OVCAR-8
A498 = test system: A498
TK-10 = test system: TK-10
NCI-H23 = test system: NCI-H23
OVCAR-3 = test system: OVCAR-3
HL-60 = test system: HL-60
M14 = test system: M14
Malme-3M = test system: Malme-3M
ACHN = test system: ACHN
RPMI-8226 = test system: RPMI-8226
SK-OV-3 = test system: SK-OV-3
MOLT-4 = test system: MOLT-4
SR = test system: SR
NCI-H226 = test system: NCI-H226

SMILES: COc1ccc(NC(=O)CC(=O)N2N=C(C)C(/N=N/c3ccc(C(=O)O)cc3)C2=O)cc1 (stereo not given)
- GI50 (COLO 205): > 100 µM (inactive)
- GI50 (SK-MEL-28): > 100 µM (inactive)
- GI50 (MDA-N): > 100 µM (inactive)
- GI50 (SN12C): > 100 µM (inactive)
- GI50 (SF-268): > 100 µM (inactive)
- GI50 (CCRF-CEM): > 100 µM (inactive)
- GI50 (SF-295): > 100 µM (inactive)
- GI50 (UACC-62): > 100 µM (inactive)
- GI50 (HCT-116): > 100 µM (inactive)
- GI50 (IGROV-1): > 100 µM (inactive)
- GI50 (K562): > 100 µM (inactive)
- GI50 (PC-3): > 100 µM (inactive)
- GI50 (SK-MEL-2): > 100 µM (inactive)
- GI50 (NCI-H522): > 100 µM (inactive)
- GI50 (EKVX): > 100 µM (inactive)
- GI50 (KM12): 71.8 µM (inactive)
- GI50 (NCI-H460): > 100 µM (inactive)
- GI50 (HT-29): > 100 µM (inactive)
- GI50 (LOX IMVI): 94 µM (inactive)
- GI50 (SW-620): > 100 µM (inactive)
- GI50 (786-0): > 100 µM (inactive)
- GI50 (NCI/ADR-RES): > 100 µM (inactive)
- GI50 (RXF 393): > 100 µM (inactive)
- GI50 (A549): > 100 µM (inactive)
- GI50 (UACC-257): > 100 µM (inactive)
- GI50 (SNB-19): > 100 µM (inactive)
- GI50 (MDA-MB-231): > 100 µM (inactive)
- GI50 (OVCAR-4): > 100 µM (inactive)
- GI50 (DU-145): > 100 µM (inactive)
- GI50 (SF-539): > 100 µM (inactive)
- GI50 (SK-MEL-5): > 100 µM (inactive)
- GI50 (SNB-75): 77.3 µM (inactive)
- GI50 (T47D): > 100 µM (inactive)
- GI50 (UO-31): > 100 µM (inactive)
- GI50 (CAKI-1): > 100 µM (inactive)
- GI50 (HCC 2998): > 100 µM (inactive)
- GI50 (MCF7): > 100 µM (inactive)
- GI50 (HOP-92): > 100 µM (inactive)
- GI50 (U-251): > 100 µM (inactive)
- GI50 (OVCAR-5): > 100 µM (inactive)
- GI50 (HOP-62): > 100 µM (inactive)
- GI50 (MDA-MB-435): > 100 µM (inactive)
- GI50 (Hs-578T): > 100 µM (inactive)
- GI50 (HCT-15): > 100 µM
- GI50 (OVCAR-8): > 100 µM (inactive)
- GI50 (A498): > 100 µM (inactive)
- GI50 (TK-10): > 100 µM (inactive)
- GI50 (NCI-H23): > 100 µM (inactive)
- GI50 (OVCAR-3): > 100 µM (inactive)
- GI50 (HL-60): > 100 µM (inactive)
- GI50 (M14): > 100 µM (inactive)
- GI50 (Malme-3M): > 100 µM (inactive)
- GI50 (ACHN): > 100 µM (inactive)
- GI50 (RPMI-8226): > 10 µM (inactive)

SMILES: CN(CCc1ccccn1)C(=S)N/N=C(\c1ccccc1)c1ccccn1
- GI50 (COLO 205): < 0.01 µM (active)
- GI50 (SK-MEL-28): 0.802 µM (active)
- GI50 (MDA-N): 0.582 µM (active)
- GI50 (SN12C): < 0.01 µM (active)
- GI50 (CCRF-CEM): < 0.01 µM (active)
- GI50 (SK-OV-3): < 0.01 µM (active)
- GI50 (SF-295): < 0.0266 µM (active)
- GI50 (UACC-62): 0.23 µM (active)
- GI50 (HCT-116): < 0.01 µM (active)
- GI50 (IGROV-1): < 0.01 µM (active)
- GI50 (K562): < 0.01 µM (active)
- GI50 (PC-3): < 0.01 µM (active)
- GI50 (SK-MEL-2): 1.42 µM (inactive)
- GI50 (NCI-H522): < 0.01 µM (active)
- GI50 (EKVX): < 0.01 µM (active)
- GI50 (KM12): 0.0194 µM (active)
- GI50 (NCI-H460): < 0.01 µM (active)
- GI50 (HT-29): < 0.01 µM (active)
- GI50 (LOX IMVI): < 0.01 µM (active)
- GI50 (SW-620): < 0.01 µM (active)
- GI50 (786-0): 0.0419 µM (active)
- GI50 (NCI/ADR-RES): < 0.01 µM (active)
- GI50 (RXF 393): 1.09 µM (active)
- GI50 (A549): < 0.0404 µM (active)
- GI50 (UACC-257): < 0.01 µM (active)
- GI50 (SNB-19): 0.215 µM (active)
- GI50 (OVCAR-4): 0.0334 µM (active)
- GI50 (DU-145): 1.41 µM (inactive)
- GI50 (MOLT-4): < 0.01 µM (active)
- GI50 (SK-MEL-5): 0.0986 µM (active)
- GI50 (SNB-75): 1.3 µM (inactive)
- GI50 (T47D): < 0.01 µM (active)
- GI50 (UO-31): 0.0192 µM (active)
- GI50 (CAKI-1): < 0.01 µM (active)
- GI50 (HCC 2998): 1.52 µM (inactive)
- GI50 (MCF7): < 0.01 µM (active)
- GI50 (HOP-92): 1.73 µM (inactive)
- GI50 (U-251): 0.0101 µM (active)
- GI50 (OVCAR-5): 1.05 µM (active)
- GI50 (HOP-62): < 0.0215 µM (active)
- GI50 (MDA-MB-435): 0.573 µM (active)
- GI50 (Hs-578T): 1.91 µM (inactive)
- GI50 (HCT-15): < 0.01 µM
- GI50 (OVCAR-8): < 0.01 µM (active)
- GI50 (A498): < 0.01 µM (active)
- GI50 (TK-10): 0.524 µM (active)
- GI50 (NCI-H23): < 0.01 µM (active)
- GI50 (OVCAR-3): < 0.01 µM (active)
- GI50 (HL-60): < 0.01 µM (active)
- GI50 (M14): < 0.0394 µM (active)
- GI50 (Malme-3M): < 0.01 µM (active)
- GI50 (ACHN): < 0.01 µM (active)
- GI50 (RPMI-8226): < 0.01 µM (active)
- GI50 (SR): 0.0489 µM (active)

SMILES: COc1cc2c(cc1OS(C)(=O)=O)N=C[C@@H]1CCCN1C2=O
- GI50 (COLO 205): > 100 µM (inactive)
- GI50 (SK-MEL-28): > 100 µM (inactive)
- GI50 (SN12C): > 100 µM (inactive)
- GI50 (SF-268): > 100 µM (inactive)
- GI50 (CCRF-CEM): 72.3 µM (inactive)
- GI50 (SK-OV-3): > 100 µM (inactive)
- GI50 (SF-295): > 100 µM (inactive)
- GI50 (UACC-62): > 100 µM (inactive)
- GI50 (HCT-116): > 100 µM (inactive)
- GI50 (IGROV-1): > 100 µM (inactive)
- GI50 (SK-MEL-2): > 100 µM (inactive)
- GI50 (NCI-H522): > 100 µM (inactive)
- GI50 (EKVX): > 100 µM (inactive)
- GI50 (KM12): > 100 µM (inactive)
- GI50 (NCI-H460): > 100 µM (inactive)
- GI50 (HT-29): > 100 µM (inactive)
- GI50 (LOX IMVI): > 100 µM (inactive)
- GI50 (SW-620): > 100 µM (inactive)
- GI50 (786-0): > 100 µM (inactive)
- GI50 (RXF 393): > 100 µM (inactive)
- GI50 (A549): > 100 µM (inactive)
- GI50 (UACC-257): > 100 µM (inactive)
- GI50 (SNB-19): > 100 µM (inactive)
- GI50 (MDA-MB-231): > 100 µM (inactive)
- GI50 (OVCAR-4): > 100 µM (inactive)
- GI50 (DU-145): > 100 µM (inactive)
- GI50 (MOLT-4): > 100 µM (inactive)
- GI50 (NCI-H226): > 100 µM (inactive)
- GI50 (SF-539): > 100 µM (inactive)
- GI50 (SK-MEL-5): > 100 µM (inactive)
- GI50 (SNB-75): > 100 µM (inactive)
- GI50 (T47D): > 100 µM (inactive)
- GI50 (UO-31): > 100 µM (inactive)
- GI50 (CAKI-1): > 100 µM (inactive)
- GI50 (HCC 2998): > 100 µM (inactive)
- GI50 (MCF7): > 100 µM (inactive)
- GI50 (HOP-92): > 100 µM (inactive)
- GI50 (U-251): > 100 µM (inactive)
- GI50 (MDA-MB-435): > 100 µM (inactive)
- GI50 (Hs-578T): > 100 µM (inactive)
- GI50 (HCT-15): > 100 µM
- GI50 (OVCAR-8): > 100 µM (inactive)
- GI50 (A498): > 100 µM (inactive)
- GI50 (TK-10): > 100 µM (inactive)
- GI50 (NCI-H23): > 100 µM (inactive)
- GI50 (OVCAR-3): > 100 µM (inactive)
- GI50 (HL-60): > 100 µM (inactive)
- GI50 (M14): > 100 µM (inactive)
- GI50 (Malme-3M): > 100 µM (inactive)
- GI50 (ACHN): > 100 µM (inactive)
- GI50 (RPMI-8226): > 100 µM (inactive)
- GI50 (SR): > 100 µM (inactive)
